Test system: whole blood
Experiment: ROTEM whole blood coagulation with rabbit brain-derived tissue thromboplastin (TP) + Ca 12 mM (CTI 20 μg/mL, PKSI-527 40 μM where stated)
Format: cell-based
[1] = Ex11, TP 16.6 μg/mL+Ca+CTI+PKSI-527, heparan sulfate 1 μg/mL, no rTM
[2] = Ex11, TP 16.6 μg/mL+Ca+CTI+PKSI-527, heparan sulfate 1 μg/mL, rTM 50 μM (title: 50 nM)
[3] = Ex11, TP 16.6 μg/mL+Ca+CTI+PKSI-527, heparan sulfate 3 μg/mL, no rTM
[4] = Ex11, TP 16.6 μg/mL+Ca+CTI+PKSI-527, heparan sulfate 3 μg/mL, rTM 50 μM (title: 50 nM)
[5] = Ex11, TP 16.6 μg/mL+Ca+CTI+PKSI-527, heparan sulfate 10 μg/mL, no rTM
[6] = Ex11, TP 16.6 μg/mL+Ca+CTI+PKSI-527, heparan sulfate 10 μg/mL, rTM 50 μM (title: 50 nM)
[7] = Ex11, TP 16.6 μg/mL+Ca+CTI+PKSI-527, heparan sulfate 15 μg/mL, no rTM
[8] = Ex11, TP 16.6 μg/mL+Ca+CTI+PKSI-527, heparan sulfate 15 μg/mL, rTM 50 μM (title: 50 nM)
[9] = Ex11, TP 16.6 μg/mL+Ca+CTI+PKSI-527, heparan sulfate 20 μg/mL, no rTM
[10] = Ex11, TP 16.6 μg/mL+Ca+CTI+PKSI-527, heparan sulfate 20 μg/mL, rTM 50 μM (title: 50 nM)
[11] = Ex11, TP 16.6 μg/mL+Ca+CTI+PKSI-527, heparan sulfate 30 μg/mL, no rTM
[12] = Ex11, TP 16.6 μg/mL+Ca+CTI+PKSI-527, heparan sulfate 30 μg/mL, rTM 50 μM (title: 50 nM)
[13] = Ex12, TP 16.6 μg/mL+Ca+CTI+PKSI-527, heparan sulfate 5 μg/mL, no rTM
[14] = Ex12, TP 16.6 μg/mL+Ca+CTI+PKSI-527, heparan sulfate 5 μg/mL, rTM 100 μM (title: 100 nM)
[15] = Ex13, TP 0.033 μg/mL+Ca+CTI+PKSI-527, heparan sulfate 0.5 μg/mL, no rTM
[16] = Ex13, TP 0.033 μg/mL+Ca+CTI+PKSI-527, heparan sulfate 0.5 μg/mL, rTM 9 μM (title: 9 nM)
[17] = Ex14, TP 0.033 μg/mL+Ca+CTI+PKSI-527, heparan sulfate 0.1 μg/mL, no rTM
[18] = Ex14, TP 0.033 μg/mL+Ca+CTI+PKSI-527, heparan sulfate 0.1 μg/mL, rTM 10 nM
[19] = Ex14, TP 0.033 μg/mL+Ca+CTI+PKSI-527, heparan sulfate 0.2 μg/mL, no rTM
[20] = Ex14, TP 0.033 μg/mL+Ca+CTI+PKSI-527, heparan sulfate 0.2 μg/mL, rTM 10 nM
[21] = Ex14, TP 0.033 μg/mL+Ca+CTI+PKSI-527, heparan sulfate 0.3 μg/mL, no rTM
[22] = Ex14, TP 0.033 μg/mL+Ca+CTI+PKSI-527, heparan sulfate 0.3 μg/mL, rTM 10 nM
[23] = Ex14, TP 0.033 μg/mL+Ca+CTI+PKSI-527, heparan sulfate 0.4 μg/mL, no rTM
[24] = Ex14, TP 0.033 μg/mL+Ca+CTI+PKSI-527, heparan sulfate 0.4 μg/mL, rTM 10 nM
[25] = Ex14, TP 0.033 μg/mL+Ca+CTI+PKSI-527, heparan sulfate 0.5 μg/mL, no rTM
[26] = Ex14, TP 0.033 μg/mL+Ca+CTI+PKSI-527, heparan sulfate 0.5 μg/mL, rTM 10 nM
[27] = Ex15, TP 0.033 μg/mL+Ca+CTI+PKSI-527, heparan sulfate 0.1 μg/mL, no rTM
[28] = Ex15, TP 0.033 μg/mL+Ca+CTI+PKSI-527, heparan sulfate 0.1 μg/mL, rTM 5 nM
[29] = Ex15, TP 0.033 μg/mL+Ca+CTI+PKSI-527, heparan sulfate 0.2 μg/mL, no rTM

With Heparan sulfate the “clotting time (CT)” value (Ex3/Ex9, TP 0.9 μg/mL+Startem, heparan sulfate 1 μg/mL, rTM 20 nM) was 319 s, the “clotting time (CT)” value (Ex4, TP 0.9 μg/mL+Ca+CTI+PKSI-527, heparan sulfate 1 μg/mL, no rTM) was 162 s and the “clotting time (CT)” value (Ex9, TP 0.9 μg/mL+Startem, heparan sulfate 1 μg/mL, no rTM) was 154 s. For the same substance, the “clotting time (CT)” value (Ex10, TP 0.45 μg/mL+Startem, heparan sulfate 1 μg/mL, no rTM) was 251 s, the “CFT (clot formation time)” value [1] was 93 s and the “CT (clotting time)” value [1] was 58 s. For the same substance, the “CFT (clot formation time)” value [2] was 72 s, the “CT (clotting time)” value [2] was 55 s and the “CFT (clot formation time)” value [3] was 93 s. The “CT (clotting time)” value [3] was 62 s, the “CFT (clot formation time)” value [4] was 73 s and the “CT (clotting time)” value [4] was 62 s. For the same substance, the “CFT (clot formation time)” value [5] was 55 s, the “CT (clotting time)” value [5] was 94 s and the “CFT (clot formation time)” value [6] was 95 s. The “CT (clotting time)” value [6] was 143 s, the “CFT (clot formation time)” value [7] was 66 s and the “CT (clotting time)” value [7] was 120 s. The “CFT (clot formation time)” value [8] was 255 s, the “CT (clotting time)” value [8] was 255 s and the “CFT (clot formation time)” value [9] was 61 s. The “CT (clotting time)” value [9] was 144 s, the “CFT (clot formation time)” value [10] was “No CFT” and the “CT (clotting time)” value [10] was “No CT”. For the same substance, the “CFT (clot formation time)” value [11] was 69 s, the “CT (clotting time)” value [11] was 193 s and the “CFT (clot formation time)” value [12] was “No CFT”. For the same substance, the “CT (clotting time)” value [12] was “No CT”, the blood clotting time (Ex11, TP 16.6 μg/mL+Ca+CTI+PKSI-527, heparan sulfate 20 or 30 μg/mL, rTM 50 nM) was ≥ 1 h and the “CFT (clot formation time)” value [13] was 76 s. For the same substance, the “CT (clotting time)” value [13] was 65 s, the “CFT (clot formation time)” value [14] was 69 s and the “CT (clotting time)” value [14] was 96 s. For the same substance, the “CFT (clot formation time)” value [15] was 248 s, the “CT (clotting time)” value [15] was 837 s and the “CFT (clot formation time)” value [16] was 1484 s. The “CT (clotting time)” value [16] was 1355 s, the “CFT (clot formation time)” value [17] was 182 s and the “CT (clotting time)” value [17] was 572 s. The “CFT (clot formation time)” value [18] was 240 s, the “CT (clotting time)” value [18] was 797 s and the “CFT (clot formation time)” value [19] was 224 s. The “CT (clotting time)” value [19] was 686 s, the “CFT (clot formation time)” value [20] was 215 s and the “CT (clotting time)” value [20] was 829 s. For the same substance, the “CFT (clot formation time)” value [21] was 171 s, the “CT (clotting time)” value [21] was 688 s and the “CFT (clot formation time)” value [22] was 290 s. For the same substance, the “CT (clotting time)” value [22] was 802 s, the “CFT (clot formation time)” value [23] was 206 s and the “CT (clotting time)” value [23] was 762 s. For the same substance, the “CFT (clot formation time)” value [24] was 733 s, the “CT (clotting time)” value [24] was 1360 s and the “CFT (clot formation time)” value [25] was 248 s. For the same substance, the “CT (clotting time)” value [25] was 837 s, the “CFT (clot formation time)” value [26] was 660 s and the “CT (clotting time)” value [26] was 1266 s. For the same substance, the “CFT (clot formation time)” value [27] was 182 s, the “CT (clotting time)” value [27] was 572 s and the “CFT (clot formation time)” value [28] was 230 s. The “CT (clotting time)” value [28] was 711 s, the “CFT (clot formation time)” value [29] was 224 s and the “CT (clotting time)” value [29] was 686 s. The “CFT (clot formation time)” value (Ex15, TP 0.033 μg/mL+Ca+CTI+PKSI-527, heparan sulfate 0.2 μg/mL, rTM 5 nM) was 209 s.

Source: patent US20240060999A1, “BLOOD COAGULATION INSPECTION METHOD” (FUJIMORI KOGYO CO., LTD, priority 2020, published 2024)
